The subject of the series is NK92-MI cells. In words: Influence of azido sugar on NK cell activity (CCK8, OD450). The note with it: final concentration 50 μM; 24 hours and 48 hours; vs 0.1% DMSO control. It is filed as cell-based. As for the experimental part:
This embodiment describes validation of influences of the added non-natural sugars on cell activities. The specific method is as follows: non-natural sugars were absorbed by cells; the cells were cultured for a period of time; then, OD450 was determined using a cell counting kit 8 (CCK8) (Beyotime), and a difference in cell activities of a group added with sugars and a group without sugars was analyzed.
The specific process is as follows: 1×10^5 pieces of NK cells were laid in a 96-pore plates; 0.1% DMSO was added into a control group, while Ac4ManNAz with a final concentration of 50 μM (the mount of the DMSO was equivalent to 0.1%) was added into an experimental group; then, the cells were cultured in an incubator at 37° C., and subsequently added with the CCK8 after 24 hours and 48 hours respectively; and after 2-hour incubation, OD450 was detected using a microplate reader.

`CC(=O)OC[C@H]1OC(OC(C)=O)[C@@H](NC(=O)CN=[N+]=[N-])[C@@H](OC(C)=O)[C@@H]1OC(C)=O` (stereo partly shown) [Ac4ManNAz, N-azidoacetylmannosamine-tetraacylated]: the “influence on cell activities (OD450, CCK8)” value is listed as “not toxic to cells, but slightly promoted growth”.

These data come from patent US12343404B2, “Ligand-targeted cell conjugate (LTCC)-based anti-tumor immune cell” (priority 2020, dated 2025).
